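Results reflect a 48-hour exposure of cells in 96-well plates to compound at five concentrations. At the GI50, growth is halved. TGI: total growth inhibition.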
Key:
Assay in all cases: NCI-60 cell line screen, 48 h
[1] = test system: UACC-62 melanoma
[2] = test system: NCI-H460 lung
[3] = test system: CCRF-CEM leukemia
[4] = test system: PC-3 prostate
[5] = test system: SK-MEL-5 melanoma
[6] = test system: U251 CNS
[7] = test system: K-562 leukemia
[8] = test system: SR leukemia
[9] = test system: UACC-257 melanoma
[10] = test system: CAKI-1 renal

| Structure (SMILES) | TGI [1] [µM] | TGI [2] [µM] | TGI [3] [µM] | TGI [4] [µM] | TGI [5] [µM] | TGI [6] [µM] | TGI [7] [µM] | TGI [8] [µM] | TGI [9] [µM] | TGI [10] [µM] | GI50 [3] [µM] |
| --- | --- | --- | --- | --- | --- | --- | --- | --- | --- | --- | --- |
| Nc1ccc(S(=O)(=O)Nc2nccs2)cc1 | > 100 | > 100 | > 100 | > 100 | > 100 | > 100 | > 100 | > 100 | > 100 | – | – |
| CCOC(=O)NC(Nc1cccc(C(F)(F)F)c1)(C(F)(F)F)C(F)(F)F | > 100 | > 100 | > 100 | > 100 | > 100 | > 100 | > 100 | > 100 | > 100 | > 100 | – |
| Cc1ccc2c(c1)C(=O)C1(C2)Cc2cccc(C)c2C1=O (stereo not given) | > 100 | > 100 | > 100 | > 100 | > 100 | > 100 | > 100 | > 100 | > 100 | 32.4 | – |
| O=C(N/N=C/c1cc(Br)cc(Br)c1[O-])c1ccccc1O.O=C(N/N=C/c1cc(Br)cc(Br)c1[O-])c1ccccc1O.[Cu+2] | 0.551 | 13.6 | 4.54 | – | 0.844 | 1.24 | 0.213 | 1.17 | 1.74 | – | 0.446 |
| COc1ccc2c(cnc3c4cc(OC)c(OC)cc4ccc23)c1 | > 100 | > 100 | > 100 | > 100 | > 100 | > 100 | > 100 | > 100 | > 100 | > 100 | – |
| C=C(Cl)C(C)(Cl)CCC(Br)C(C)(C)Cl (stereo not given) | 30.9 | 71.9 | 67.2 | > 100 | 30.8 | 29.8 | > 100 | 93.6 | 30.5 | 50.1 | – |
| COC1C=COC2(C)Oc3c(C)c(O)c4c(O)c(c(C5SCCS5)c(O)c4c3C2=O)NC(=O)C(C)=C/C=C\C(C)C2OC(C)(C)OC(C2C)C(C)C(OC(C)=O)C1C (stereo not given) | 15 | 63.2 | > 100 | > 100 | 15.5 | > 100 | > 100 | – | 7.89 | 27.7 | – |
| NNC(=O)CSc1nc2ccccc2c(=O)n1N | > 100 | > 100 | > 100 | > 100 | > 100 | 89.3 | > 100 | > 100 | > 100 | > 100 | – |
| C=C([C@@]1(O)C[C@H]2[C@H](CCC2(OC)OC)[C@@H]2c3ccccc3O[C@@H]21)[Si](C)(C)C | > 100 | > 100 | – | > 100 | > 100 | > 100 | > 100 | > 100 | > 100 | > 100 | – |
| COc1ccc(N2C(=O)CSC2c2c[nH]c3ccccc23)cc1 (stereo not given) | > 100 | > 100 | > 100 | > 100 | > 100 | > 100 | > 100 | > 100 | > 100 | – | – |
| CC(C)=CCNc1ncnc2c1ncn2CCC#N | > 100 | > 100 | > 100 | > 100 | > 100 | > 100 | > 100 | > 100 | – | – | – |
| CC(C)CC(O)P(=O)(O)O (stereo not given) | > 100 | > 100 | – | > 100 | > 100 | > 100 | > 100 | – | > 100 | > 100 | – |
| CN1[C@@H]2C[C@@H](OC(=O)[C@H](CO)c3ccccc3)C[C@H]1[C@@H]1O[C@@H]12 | > 100 | – | > 100 | > 100 | > 100 | – | > 100 | > 100 | > 100 | > 100 | – |
| OCc1ccc(C2CC(c3ccco3)=NN2c2ccccc2)o1 (stereo not given) | > 100 | > 100 | > 100 | – | > 100 | > 100 | > 100 | > 100 | – | – | – |
| C=C1CN2CC(=C)CN(C1)CS(=O)(=O)N1CC(=C)CN(CC(=C)C1)S(=O)(=O)N1CC(=C)CN(CC(=C)C1)S(=O)(=O)C2 | > 100 | > 100 | – | 38.6 | 48 | > 100 | > 100 | > 100 | 94.4 | > 100 | – |
| Cc1ccc(S(=O)(=O)NC(=O)N[C@@H](Cc2cnc[nH]2)C(=O)O)cc1 | > 100 | > 100 | > 100 | > 100 | > 100 | > 100 | > 100 | – | > 100 | – | – |
| COc1c(C(C)C)cc2c3c1OC(=O)[C@@]31CCCC(C)(C)C1CC2 (stereo not given in full) | > 100 | > 100 | 59.7 | – | 28.4 | > 100 | > 100 | > 100 | 54.1 | > 100 | – |
| O=C(CN(c1ccccc1)c1ccccc1)n1nnc2ccccc21 | > 100 | > 100 | > 100 | – | 69.3 | > 100 | > 100 | > 100 | > 100 | > 100 | – |
| CCC(=O)ONC(=O)Cn1ccc([N+](=O)[O-])n1 | > 100 | – | > 100 | > 100 | > 100 | – | > 100 | > 100 | > 100 | > 100 | – |
| Cc1cc(NCc2ccccc2)c2ccccc2[n+]1CCCCCCCCCC[n+]1c(C)cc(NCc2ccccc2)c2ccccc21 | 0.567 | – | – | 5.16 | 0.638 | 0.795 | – | – | 1.31 | 5.48 | – |
| COc1cccc(/C=N/n2c(C)n[nH]c2=O)c1 | > 100 | > 100 | > 100 | > 100 | – | > 100 | > 100 | – | > 100 | > 100 | – |
| Cc1cc(S(=O)(=O)Nc2nc3cc(-c4ccc(Cl)cc4)sc3c(=O)n2N)c(S)cc1Cl | > 100 | > 100 | 59 | > 100 | > 100 | > 100 | > 100 | – | > 100 | > 100 | – |
| COc1cc(OC)c(C2c3cc4c(cc3OC(N3CCCC3)C2C)OCO4)c(OC)c1 (stereo not given) | 69.6 | 32.5 | 45.5 | 49 | 29.4 | – | 58.2 | 29.6 | 73 | – | – |
